The target in one series is T1, TRABID (Homo sapiens, UniProt Q9UGI0).
T1 sequence (Q9UGI0 1-708): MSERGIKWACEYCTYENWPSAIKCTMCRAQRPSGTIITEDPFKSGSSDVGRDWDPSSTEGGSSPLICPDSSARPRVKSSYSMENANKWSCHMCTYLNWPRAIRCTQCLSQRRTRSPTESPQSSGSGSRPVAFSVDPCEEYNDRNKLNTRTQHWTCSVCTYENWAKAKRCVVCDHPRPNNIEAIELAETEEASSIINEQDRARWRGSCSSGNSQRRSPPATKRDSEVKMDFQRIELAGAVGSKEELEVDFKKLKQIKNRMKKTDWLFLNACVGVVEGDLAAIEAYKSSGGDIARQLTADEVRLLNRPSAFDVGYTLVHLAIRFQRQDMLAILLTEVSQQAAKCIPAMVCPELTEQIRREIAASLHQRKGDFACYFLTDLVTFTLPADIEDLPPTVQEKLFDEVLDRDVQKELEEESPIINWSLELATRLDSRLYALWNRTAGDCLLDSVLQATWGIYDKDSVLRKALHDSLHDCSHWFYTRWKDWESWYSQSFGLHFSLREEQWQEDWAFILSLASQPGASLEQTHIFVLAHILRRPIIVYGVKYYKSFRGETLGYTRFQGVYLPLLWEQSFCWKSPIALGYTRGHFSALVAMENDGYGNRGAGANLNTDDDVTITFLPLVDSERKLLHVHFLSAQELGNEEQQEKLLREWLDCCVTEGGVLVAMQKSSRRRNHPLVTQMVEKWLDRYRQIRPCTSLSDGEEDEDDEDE
Kind of series: Biochemical DUB selectivity profiling assay: TRABID. As to conditions: Ub-Rho110 400 nM, buffer B; read-out: Biochemical IC50 range, TRABID. Here is the method: (§1) DUB Assay Substrate Substrate
(§2) Buffer Concentration (nM) […]
(§3) Sepharose® 4B resin (GE Healthcare).
(§4) 10 kDa molecular weight cut-off (MWCO)).
(§5) Fractions containing protein
(§6) Protein concentration was […]
(§7) reaction volume of 21 μL. […]
(§8) compound (final concentration 5 nM).
(§9) IC50 values were determined
(§10) Biochemical DUB selectivity profiling assays […]
(§11) in 40 µL total reaction volume.

Series [1] in a line: FMT assay, cell number (DAPI nuclei count). As to conditions: human.
Series [2] concerns the target T2, DUBs and other proteins in HEK293 cells (Homo sapiens, UniProt P51665).
T2 sequence (P51665 1-324): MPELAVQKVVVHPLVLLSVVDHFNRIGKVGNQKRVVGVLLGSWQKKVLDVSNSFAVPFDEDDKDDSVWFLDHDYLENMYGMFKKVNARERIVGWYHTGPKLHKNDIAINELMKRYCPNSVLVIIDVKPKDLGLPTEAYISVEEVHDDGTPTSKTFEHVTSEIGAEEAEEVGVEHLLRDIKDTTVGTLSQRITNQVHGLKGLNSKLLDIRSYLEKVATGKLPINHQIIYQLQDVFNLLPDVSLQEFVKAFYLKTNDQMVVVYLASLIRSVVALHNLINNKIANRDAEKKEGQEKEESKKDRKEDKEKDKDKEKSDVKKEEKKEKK
Kind of series: In-cell proteome-wide competitive ABPP, HEK293: other DUBs and proteins. As to conditions: replicates A-C; for Log2 reporter intensity values: PSMD7: DMSO substract (FC); for Log2 reporter intensity values: PSMD7, DMSO subtracted.

In series [3] the target is T3, DUBs and other proteins in HEK293 cells (Homo sapiens, UniProt Q86UV5).
T3 sequence (Q86UV5 1-1035): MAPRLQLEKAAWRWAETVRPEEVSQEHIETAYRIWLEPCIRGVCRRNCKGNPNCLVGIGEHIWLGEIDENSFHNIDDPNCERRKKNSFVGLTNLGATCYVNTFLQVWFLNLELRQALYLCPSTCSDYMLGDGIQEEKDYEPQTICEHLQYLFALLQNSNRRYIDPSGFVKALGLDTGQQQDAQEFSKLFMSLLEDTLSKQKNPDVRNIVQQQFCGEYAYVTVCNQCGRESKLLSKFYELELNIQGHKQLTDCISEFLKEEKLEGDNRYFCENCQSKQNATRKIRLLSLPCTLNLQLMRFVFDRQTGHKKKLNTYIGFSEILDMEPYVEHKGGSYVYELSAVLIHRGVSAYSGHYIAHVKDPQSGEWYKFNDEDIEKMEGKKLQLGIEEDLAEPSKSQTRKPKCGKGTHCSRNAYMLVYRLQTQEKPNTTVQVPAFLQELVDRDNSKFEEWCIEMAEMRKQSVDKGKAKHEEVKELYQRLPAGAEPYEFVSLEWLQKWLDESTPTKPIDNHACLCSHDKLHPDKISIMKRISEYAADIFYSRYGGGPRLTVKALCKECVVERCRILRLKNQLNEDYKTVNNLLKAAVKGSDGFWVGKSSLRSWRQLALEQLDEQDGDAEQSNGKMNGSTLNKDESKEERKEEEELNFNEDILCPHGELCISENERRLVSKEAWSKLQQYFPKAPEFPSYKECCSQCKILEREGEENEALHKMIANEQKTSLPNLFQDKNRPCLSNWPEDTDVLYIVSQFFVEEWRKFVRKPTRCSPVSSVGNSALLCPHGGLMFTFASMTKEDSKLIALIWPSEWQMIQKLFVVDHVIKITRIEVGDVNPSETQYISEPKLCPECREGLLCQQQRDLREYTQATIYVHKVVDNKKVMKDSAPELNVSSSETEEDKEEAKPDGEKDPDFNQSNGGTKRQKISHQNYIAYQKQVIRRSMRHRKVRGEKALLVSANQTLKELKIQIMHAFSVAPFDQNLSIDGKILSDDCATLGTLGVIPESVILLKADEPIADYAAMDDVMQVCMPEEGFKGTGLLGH
The series is described as above. As to conditions: for Log2 reporter intensity values: USP48: DMSO substract (FC), replicates A-B; for Log2 reporter intensity values: USP48, DMSO subtracted.

The target of the next series is USP34 (Homo sapiens, UniProt Q70CQ2). Kind of series: Biochemical DUB selectivity profiling assay: USP34. As to conditions: Ub-Rho110 400 nM, buffer B; read-out: Biochemical IC50 range, USP34. Here is the method: as §1, §2, §3, §4, §5, §6, §7, §8, §9, §10, §11
Setting [4] is: 1 at 1 μM, competition with ABP 2.
[5] abbreviates: 1 at 4 μM, competition with ABP 2.
Setting [6] is: 3 at 1 μM, competition with ABP 2.
Setting [7] is: 3 at 4 μM, competition with ABP 2.
[8] abbreviates: LDN at 5 μM, competition with ABP 2.
The mark [9] stands for this setting: LDN at 25 μM, competition with ABP 2.

Several values for one entry are separate records, joined by “and”; a condition that tells them apart may be missing. Equal values may be shown once. Where only a bound is given, the exact number is not on record here.

USP34, sequence (Q70CQ2 whole entry): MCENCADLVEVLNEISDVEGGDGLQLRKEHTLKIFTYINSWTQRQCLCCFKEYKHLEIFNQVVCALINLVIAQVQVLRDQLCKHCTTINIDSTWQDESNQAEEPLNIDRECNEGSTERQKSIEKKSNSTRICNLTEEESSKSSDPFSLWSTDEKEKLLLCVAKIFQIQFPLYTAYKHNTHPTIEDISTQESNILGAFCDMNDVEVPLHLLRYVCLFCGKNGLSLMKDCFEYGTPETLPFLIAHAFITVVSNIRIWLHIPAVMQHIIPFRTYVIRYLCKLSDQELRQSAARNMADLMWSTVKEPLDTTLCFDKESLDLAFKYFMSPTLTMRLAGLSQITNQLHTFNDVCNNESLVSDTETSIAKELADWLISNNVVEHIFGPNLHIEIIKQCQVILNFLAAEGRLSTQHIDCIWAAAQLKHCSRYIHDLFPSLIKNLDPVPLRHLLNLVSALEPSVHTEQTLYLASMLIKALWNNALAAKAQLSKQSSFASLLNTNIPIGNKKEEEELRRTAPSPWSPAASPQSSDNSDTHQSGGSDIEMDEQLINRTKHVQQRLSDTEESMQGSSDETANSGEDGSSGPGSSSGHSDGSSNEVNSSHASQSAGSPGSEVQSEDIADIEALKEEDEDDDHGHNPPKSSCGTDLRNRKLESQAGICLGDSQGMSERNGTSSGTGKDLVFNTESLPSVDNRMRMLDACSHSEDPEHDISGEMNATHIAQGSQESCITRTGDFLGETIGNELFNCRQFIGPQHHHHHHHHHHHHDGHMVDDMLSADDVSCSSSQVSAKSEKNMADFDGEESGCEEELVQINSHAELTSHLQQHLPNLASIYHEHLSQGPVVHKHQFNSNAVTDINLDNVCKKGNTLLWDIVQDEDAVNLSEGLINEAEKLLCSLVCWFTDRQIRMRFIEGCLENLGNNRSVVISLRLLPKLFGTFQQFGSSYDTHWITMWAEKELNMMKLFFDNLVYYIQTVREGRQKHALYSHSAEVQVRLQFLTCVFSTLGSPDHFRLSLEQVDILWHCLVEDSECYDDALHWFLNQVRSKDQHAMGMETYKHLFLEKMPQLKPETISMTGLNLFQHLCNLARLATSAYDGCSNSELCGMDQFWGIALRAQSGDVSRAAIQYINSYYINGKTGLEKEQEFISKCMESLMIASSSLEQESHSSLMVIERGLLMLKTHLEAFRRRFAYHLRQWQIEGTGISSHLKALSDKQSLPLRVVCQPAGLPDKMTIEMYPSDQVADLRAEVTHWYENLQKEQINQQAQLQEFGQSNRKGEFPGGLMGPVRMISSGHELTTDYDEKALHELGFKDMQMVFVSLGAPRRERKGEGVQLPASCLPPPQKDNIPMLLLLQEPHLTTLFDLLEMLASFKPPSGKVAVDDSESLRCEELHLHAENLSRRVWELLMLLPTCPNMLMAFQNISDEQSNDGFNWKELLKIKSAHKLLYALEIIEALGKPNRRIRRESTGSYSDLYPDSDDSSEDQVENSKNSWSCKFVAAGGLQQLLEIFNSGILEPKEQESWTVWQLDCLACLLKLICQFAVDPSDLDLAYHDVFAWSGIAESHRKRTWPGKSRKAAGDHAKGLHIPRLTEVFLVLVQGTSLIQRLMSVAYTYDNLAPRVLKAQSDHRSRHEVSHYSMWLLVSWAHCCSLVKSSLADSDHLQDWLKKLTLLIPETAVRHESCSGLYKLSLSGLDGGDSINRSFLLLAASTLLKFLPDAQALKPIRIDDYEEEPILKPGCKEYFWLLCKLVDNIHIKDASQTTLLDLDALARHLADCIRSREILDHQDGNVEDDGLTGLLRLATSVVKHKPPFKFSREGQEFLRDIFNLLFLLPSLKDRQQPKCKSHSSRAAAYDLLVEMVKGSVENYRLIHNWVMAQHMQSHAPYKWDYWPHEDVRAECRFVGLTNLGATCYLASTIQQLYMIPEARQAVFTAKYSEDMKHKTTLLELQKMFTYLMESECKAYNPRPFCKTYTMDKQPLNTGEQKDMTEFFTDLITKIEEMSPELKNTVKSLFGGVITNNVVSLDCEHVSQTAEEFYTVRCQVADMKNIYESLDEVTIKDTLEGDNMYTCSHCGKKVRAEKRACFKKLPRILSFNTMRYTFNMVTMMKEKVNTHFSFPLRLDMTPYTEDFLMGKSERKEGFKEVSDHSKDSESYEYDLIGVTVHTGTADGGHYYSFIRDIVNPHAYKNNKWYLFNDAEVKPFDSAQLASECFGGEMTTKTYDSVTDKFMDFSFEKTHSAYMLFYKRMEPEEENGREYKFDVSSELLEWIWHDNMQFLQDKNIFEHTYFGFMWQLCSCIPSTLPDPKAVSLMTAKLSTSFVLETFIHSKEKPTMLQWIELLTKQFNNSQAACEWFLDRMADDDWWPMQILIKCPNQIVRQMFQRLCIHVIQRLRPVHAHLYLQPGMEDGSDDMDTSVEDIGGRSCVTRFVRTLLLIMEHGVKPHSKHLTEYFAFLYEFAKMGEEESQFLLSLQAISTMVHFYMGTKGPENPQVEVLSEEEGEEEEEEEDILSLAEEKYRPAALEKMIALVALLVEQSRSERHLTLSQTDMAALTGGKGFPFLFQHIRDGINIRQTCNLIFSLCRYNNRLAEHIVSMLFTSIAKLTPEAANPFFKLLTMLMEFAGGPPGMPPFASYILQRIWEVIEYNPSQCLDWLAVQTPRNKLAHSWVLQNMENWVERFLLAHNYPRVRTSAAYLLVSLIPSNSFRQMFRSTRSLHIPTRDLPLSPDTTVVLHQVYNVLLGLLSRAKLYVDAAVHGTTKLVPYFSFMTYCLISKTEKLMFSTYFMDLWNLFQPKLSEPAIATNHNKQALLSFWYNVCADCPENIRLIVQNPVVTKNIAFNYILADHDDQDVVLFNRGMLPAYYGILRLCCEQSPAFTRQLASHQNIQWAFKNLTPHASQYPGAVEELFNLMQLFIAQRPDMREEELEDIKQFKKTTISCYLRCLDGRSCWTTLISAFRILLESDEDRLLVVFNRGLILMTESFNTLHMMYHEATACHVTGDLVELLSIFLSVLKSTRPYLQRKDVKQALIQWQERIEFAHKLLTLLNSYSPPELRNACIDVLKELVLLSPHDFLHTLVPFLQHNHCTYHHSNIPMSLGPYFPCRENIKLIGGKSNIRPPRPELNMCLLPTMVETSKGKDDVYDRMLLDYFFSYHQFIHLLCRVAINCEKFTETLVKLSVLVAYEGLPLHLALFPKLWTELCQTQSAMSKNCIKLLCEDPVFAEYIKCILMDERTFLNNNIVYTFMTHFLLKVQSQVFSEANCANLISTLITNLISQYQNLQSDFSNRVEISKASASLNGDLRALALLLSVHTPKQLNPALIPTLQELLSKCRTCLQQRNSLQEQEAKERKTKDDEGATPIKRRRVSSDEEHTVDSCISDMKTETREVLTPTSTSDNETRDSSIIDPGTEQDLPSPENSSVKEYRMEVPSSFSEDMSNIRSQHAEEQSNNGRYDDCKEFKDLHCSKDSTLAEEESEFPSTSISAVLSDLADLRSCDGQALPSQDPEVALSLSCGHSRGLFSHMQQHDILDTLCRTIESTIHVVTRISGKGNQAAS

Consider `N#CN1CCC[C@H]1C(=O)N1CCc2c(-c3c[nH]c4ncccc34)cccc21` [Compound 1], for which the concentration for half-maximal inhibition (IC50) (commonly the concentration needed to halve the response being measured) was greater than 10 µM at TRABID and 1 to 10 µM at USP34. Also, the EC50 – broadly, the concentration giving half of the maximal effect – at 3 days in series [1] is roughly 11 µM. Also, the “Log2 reporter intensity values: PSMD7” value in series [2] (setting [4]) was 1.13 and 1.005 and 1.053; in series [2] (setting [5]) it was 1.07 and 1.047 and 1.231. Also, the “Log2 reporter intensity values” was 0.1278 and 0.002507 and 0.05011 in series [2] (1_1 μM); 0.06753 and 0.04399 and 0.2288 in series [2] (1_4 μM); 0.1768 and 0.007299 and 0.07406 in series [2] (1 at 1 μM); 0.09774 and 0.06565 and 0.3003 in series [2] (1 at 4 μM); 0.113 and -0.07208 in series [3] (1_1 μM, replicates A-B (C NaN)); 0.01672 and -0.0523 in series [3] (1_4 μM, replicates A-B (C NaN)). Also, the “Log2 reporter intensity values” was 0.1561 and -0.1059 in series [3] (1 at 1 μM, replicates A-C); 0.02574 and -0.07554 in series [3] (1 at 4 μM, replicates A-C). For the same compound, the “Log2 reporter intensity values: USP48” value in series [3] (setting [4]) is 1.114 and 0.9292; in series [3] (setting [5]), 1.018 and 0.949.
In the case of `C#Cc1cnc2[nH]cc(-c3cccc4c3CCN4C(=O)[C@@H]3CCCN3C#N)c2c1` [Compound 2], the half-inhibitory concentration (IC50) is greater than 10 µM on TRABID and 1 to 10 µM on USP34. Also, the EC50 at 3 days in series [1] was roughly 11 µM. Moreover, the “Log2 reporter intensity values: PSMD7” value in series [2] (20 nM ABP 2 alone) stood at 0.8915. Besides, the “Log2 reporter intensity values” was 0.1122 and -0.1657 and 0.02 and 0.07832 in series [2] (20 nM ABP 2); -0.04252 and -0.02245 in series [3] (20 nM ABP 2, replicates A-B (C NaN)); -0.06076 and -0.03088 in series [3] (20 nM ABP 2, replicates A-C). For the same compound, the “Log2 reporter intensity values: USP48” value in series [3] (20 nM ABP 2 alone) is 0.9588 and 0.9788.
As to `N#CN1CCC[C@@H]1C(=O)N1CCc2c(-c3c[nH]c4ncccc34)cccc21` [Compound 3], the IC50 on TRABID and on USP34 was greater than 10 µM throughout. The compound also displayed a half-maximal effective concentration (EC50) at 3 days in series [1] of roughly 23 µM. In addition, the “Log2 reporter intensity values: PSMD7” value in series [2] (setting [6]) is 1.2 and 1.081 and 1.198; in series [2] (setting [7]) it was 1.083 and 1.233 and 0.9957. Also, the “Log2 reporter intensity values” in series [2] (3_1 μM) is 0.1973 and 0.07834 and 0.1956; in series [2] (3_4 μM), 0.08024 and 0.2301 and -0.006858; in series [2] (3 at 1 μM), 0.2629 and 0.1122 and 0.2608; in series [2] (3 at 4 μM), 0.1148 and 0.3017 and -0.006207; in series [3] (3_1 μM, replicates A-B (C NaN)), 0.06169 and -0.1169; in series [3] (3_4 μM, replicates A-B (C NaN)), -0.1378 and 0.156. Besides, the “Log2 reporter intensity values” in series [3] (3 at 1 μM, replicates A-C) is 0.08809 and -0.1773; in series [3] (3 at 4 μM, replicates A-C) it was -0.2118 and 0.2108. In addition, the “Log2 reporter intensity values: USP48” value in series [3] (setting [6]) was 1.063 and 0.8844; in series [3] (setting [7]), 0.8635 and 1.157.
As for `CC(=O)O/N=C1\C(=O)N(Cc2cc(Cl)ccc2Cl)c2ccc(Cl)cc21` [LDN-57444, reference compound], the IC50 at TRABID and on USP34 was greater than 10 µM throughout.
For `CC(=O)O/N=C1\C(=O)N(Cc2cc(Cl)ccc2Cl)c2ccc(Cl)cc21` [LDN], the “Log2 reporter intensity values: PSMD7” value in series [2] (setting [8]) is 1.218 and 1.097 and 1.111; in series [2] (setting [9]), 1.26 and 1.205 and 1.158. Moreover, the “Log2 reporter intensity values” is 0.2849 and 0.1342 and 0.1516 in series [2] (LDN at 5 μM); 0.3338 and 0.2689 and 0.2118 in series [2] (LDN at 25 μM); 0.2157 and 0.09493 and 0.1083 in series [2] (LDN_5 μM); 0.2577 and 0.2023 and 0.1556 in series [2] (LDN_25 μM); 0.0673 and 0.1618 in series [3] (LDN at 5 μM, replicates A-C); 0.1604 and 0.1117 in series [3] (LDN at 25 μM, replicates A-C). The “Log2 reporter intensity values” in series [3] (LDN_5 μM, replicates A-B (C NaN)) is 0.04647 and 0.1174; in series [3] (LDN_25 μM, replicates A-B (C NaN)) it was 0.1163 and 0.0792. Also, the “Log2 reporter intensity values: USP48” value in series [3] (setting [8]) was 1.048 and 1.119; in series [3] (setting [9]), 1.118 and 1.08.
